US20240269139A1, “COMPOUNDS FOR TARGETED PROTEIN DEGRADATION OF KINASES” (DANA-FARBER CANCER INSTITUTE, INC., priority 2020, published 2024)
Like-named read-outs stand apart in the source and are kept apart here.

Key:
[1] = molecular target: protein kinases (human kinome) (Homo sapiens, UniProt P04183); format: cell-based; settings: TK1 (P04183); experiment wp168
[2] = molecular target: protein kinases (human kinome) (Homo sapiens, UniProt P06239); format: cell-based; settings: experiment wp168
[3] = molecular target: protein kinases (human kinome) (Homo sapiens, UniProt P07947); format: cell-based; settings: YES1 (P07947), experiment wp168
[4] = molecular target: protein kinases (human kinome) (Homo sapiens, UniProt P11802); format: cell-based; settings: experiment wp168
[5] = molecular target: protein kinases (human kinome) (Homo sapiens, UniProt P12931); format: cell-based
[6] = molecular target: protein kinases (human kinome) (Homo sapiens, UniProt P16591); format: cell-based
[7] = molecular target: protein kinases (human kinome) (Homo sapiens, UniProt P35790); format: cell-based; settings: CHKA P35790; experiment wp168
[8] = molecular target: protein kinases (human kinome) (Homo sapiens, UniProt P41240); format: cell-based; settings: experiment wp168
[9] = molecular target: protein kinases (human kinome) (Homo sapiens, UniProt P45984); format: cell-based; settings: MAPK9 P45984-1; experiment wp168
[10] = molecular target: protein kinases (human kinome) (Homo sapiens, UniProt P49759); format: cell-based
[11] = molecular target: protein kinases (human kinome) (Homo sapiens, UniProt P51451); format: cell-based
[12] = molecular target: protein kinases (human kinome) (Homo sapiens, UniProt P53350); format: cell-based; settings: PLK1 P53350; experiment wp168
[13] = molecular target: protein kinases (human kinome) (Homo sapiens, UniProt P53667); format: cell-based; settings: LIMK1 (P53667-1), experiment wp168
[14] = molecular target: protein kinases (human kinome) (Homo sapiens, UniProt Q07912); format: cell-based
[15] = molecular target: T1, protein kinases (human kinome) (Homo sapiens, UniProt Q8TAS1); format: cell-based; settings: experiment wp168
T1 sequence (Q8TAS1 1-419): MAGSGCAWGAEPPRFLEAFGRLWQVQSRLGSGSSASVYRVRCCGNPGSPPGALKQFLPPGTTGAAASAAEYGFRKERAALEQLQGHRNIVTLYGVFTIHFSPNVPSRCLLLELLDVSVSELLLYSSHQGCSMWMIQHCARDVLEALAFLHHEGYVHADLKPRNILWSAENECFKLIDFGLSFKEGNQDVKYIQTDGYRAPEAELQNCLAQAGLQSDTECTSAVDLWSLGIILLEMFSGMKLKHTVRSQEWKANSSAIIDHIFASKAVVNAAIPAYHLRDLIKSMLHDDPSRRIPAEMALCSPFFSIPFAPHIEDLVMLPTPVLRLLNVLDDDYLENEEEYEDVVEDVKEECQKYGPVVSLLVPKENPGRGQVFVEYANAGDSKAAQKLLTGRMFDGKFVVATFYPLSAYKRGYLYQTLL

[16] = molecular target: protein kinases (human kinome) (Homo sapiens, UniProt Q9H0K1); format: cell-based; settings: experiment wp168
[17] = molecular target: protein kinases (human kinome) (Homo sapiens, UniProt Q9HBH9); format: cell-based
[18] = test system: protein kinases (human kinome); format: cell-based
[19] = molecular target: extended human kinome (kinase-like proteins) (Homo sapiens, UniProt Q16875); experiment: Whole cell quantitative proteomics: extended kinome hits; settings: Accession Q16875; experiment wp168
[20] = Experiment wp168, direction down

Chain of protein kinases (human kinome) (Homo sapiens, UniProt P45984) (P45984 whole entry): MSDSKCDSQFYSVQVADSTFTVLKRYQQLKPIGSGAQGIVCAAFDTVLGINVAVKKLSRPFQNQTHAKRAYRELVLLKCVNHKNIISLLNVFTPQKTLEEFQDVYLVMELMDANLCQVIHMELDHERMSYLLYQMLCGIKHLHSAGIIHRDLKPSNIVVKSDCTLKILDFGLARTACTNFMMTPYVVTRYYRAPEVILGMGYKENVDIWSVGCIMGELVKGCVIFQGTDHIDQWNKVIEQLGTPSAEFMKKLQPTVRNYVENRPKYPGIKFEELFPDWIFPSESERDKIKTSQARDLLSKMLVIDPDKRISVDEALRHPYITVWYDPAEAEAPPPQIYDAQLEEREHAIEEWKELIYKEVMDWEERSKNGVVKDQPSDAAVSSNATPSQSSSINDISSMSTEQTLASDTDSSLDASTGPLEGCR
Chain of protein kinases (human kinome) (Homo sapiens, UniProt P07947) (P07947 whole entry): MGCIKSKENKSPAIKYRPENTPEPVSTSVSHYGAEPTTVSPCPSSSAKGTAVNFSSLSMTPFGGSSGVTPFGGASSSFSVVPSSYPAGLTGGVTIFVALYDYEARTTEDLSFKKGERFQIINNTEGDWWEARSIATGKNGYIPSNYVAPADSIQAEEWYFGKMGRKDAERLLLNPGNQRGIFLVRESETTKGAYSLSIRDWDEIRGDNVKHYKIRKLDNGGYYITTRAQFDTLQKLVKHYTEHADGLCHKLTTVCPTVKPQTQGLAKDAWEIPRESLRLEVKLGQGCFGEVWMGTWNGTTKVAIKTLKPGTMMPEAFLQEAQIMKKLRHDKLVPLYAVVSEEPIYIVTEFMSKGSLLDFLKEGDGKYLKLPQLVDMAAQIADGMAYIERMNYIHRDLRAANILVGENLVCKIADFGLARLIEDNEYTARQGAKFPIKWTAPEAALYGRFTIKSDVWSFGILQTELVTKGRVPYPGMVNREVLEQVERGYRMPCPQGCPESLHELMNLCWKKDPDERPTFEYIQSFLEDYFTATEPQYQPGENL
Chain of protein kinases (human kinome) (Homo sapiens, UniProt P12931) (P12931 whole entry): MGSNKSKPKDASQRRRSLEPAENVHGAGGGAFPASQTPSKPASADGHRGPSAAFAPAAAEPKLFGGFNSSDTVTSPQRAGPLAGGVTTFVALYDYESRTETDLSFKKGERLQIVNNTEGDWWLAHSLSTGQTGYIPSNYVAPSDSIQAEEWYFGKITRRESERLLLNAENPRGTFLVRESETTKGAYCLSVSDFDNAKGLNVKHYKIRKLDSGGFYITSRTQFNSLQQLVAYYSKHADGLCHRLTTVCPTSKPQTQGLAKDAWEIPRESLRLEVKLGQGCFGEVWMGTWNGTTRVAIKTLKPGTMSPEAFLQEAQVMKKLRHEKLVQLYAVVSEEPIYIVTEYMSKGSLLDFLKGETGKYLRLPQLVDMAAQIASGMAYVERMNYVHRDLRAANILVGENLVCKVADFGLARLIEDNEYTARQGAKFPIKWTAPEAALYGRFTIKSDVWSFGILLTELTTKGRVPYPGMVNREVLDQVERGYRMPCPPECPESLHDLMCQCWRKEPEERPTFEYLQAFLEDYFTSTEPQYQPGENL
Chain of protein kinases (human kinome) (Homo sapiens, UniProt Q9H0K1) (Q9H0K1 whole entry): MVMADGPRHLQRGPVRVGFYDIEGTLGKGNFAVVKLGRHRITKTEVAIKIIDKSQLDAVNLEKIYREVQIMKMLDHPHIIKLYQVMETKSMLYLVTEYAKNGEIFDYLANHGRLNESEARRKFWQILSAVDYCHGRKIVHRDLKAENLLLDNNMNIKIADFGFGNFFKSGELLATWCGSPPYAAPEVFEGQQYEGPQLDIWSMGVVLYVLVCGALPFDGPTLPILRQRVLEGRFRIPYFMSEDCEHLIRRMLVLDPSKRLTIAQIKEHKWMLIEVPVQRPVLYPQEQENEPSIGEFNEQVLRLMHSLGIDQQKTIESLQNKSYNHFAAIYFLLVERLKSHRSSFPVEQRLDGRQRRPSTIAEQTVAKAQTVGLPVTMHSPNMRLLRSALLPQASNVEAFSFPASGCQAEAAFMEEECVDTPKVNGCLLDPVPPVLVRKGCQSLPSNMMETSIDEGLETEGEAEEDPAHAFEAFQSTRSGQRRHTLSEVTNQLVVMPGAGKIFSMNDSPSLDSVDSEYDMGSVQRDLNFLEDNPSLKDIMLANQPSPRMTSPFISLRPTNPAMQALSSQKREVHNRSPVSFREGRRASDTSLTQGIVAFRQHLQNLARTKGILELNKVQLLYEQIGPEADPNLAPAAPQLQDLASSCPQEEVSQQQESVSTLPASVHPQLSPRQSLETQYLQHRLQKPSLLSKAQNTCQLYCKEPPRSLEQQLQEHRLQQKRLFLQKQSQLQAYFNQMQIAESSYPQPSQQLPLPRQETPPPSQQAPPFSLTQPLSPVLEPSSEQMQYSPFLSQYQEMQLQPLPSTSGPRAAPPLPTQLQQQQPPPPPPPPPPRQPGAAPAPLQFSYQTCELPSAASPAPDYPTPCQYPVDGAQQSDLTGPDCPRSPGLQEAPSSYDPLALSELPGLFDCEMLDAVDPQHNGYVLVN
Chain of protein kinases (human kinome) (Homo sapiens, UniProt P06239) (P06239 whole entry): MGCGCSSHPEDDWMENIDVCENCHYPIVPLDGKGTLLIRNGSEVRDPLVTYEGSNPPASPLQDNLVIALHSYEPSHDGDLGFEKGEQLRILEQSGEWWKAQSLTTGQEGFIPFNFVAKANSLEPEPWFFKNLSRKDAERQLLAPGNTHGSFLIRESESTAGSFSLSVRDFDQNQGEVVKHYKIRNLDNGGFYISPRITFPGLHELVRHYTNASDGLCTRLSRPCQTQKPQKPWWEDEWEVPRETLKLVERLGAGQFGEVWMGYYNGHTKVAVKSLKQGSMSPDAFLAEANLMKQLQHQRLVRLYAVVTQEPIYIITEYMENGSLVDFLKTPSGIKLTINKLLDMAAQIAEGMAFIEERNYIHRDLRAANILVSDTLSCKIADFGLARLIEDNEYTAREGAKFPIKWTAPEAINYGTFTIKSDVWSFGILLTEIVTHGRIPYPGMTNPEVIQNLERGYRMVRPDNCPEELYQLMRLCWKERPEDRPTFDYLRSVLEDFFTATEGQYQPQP
Chain of protein kinases (human kinome) (Homo sapiens, UniProt P53667) (P53667 whole entry): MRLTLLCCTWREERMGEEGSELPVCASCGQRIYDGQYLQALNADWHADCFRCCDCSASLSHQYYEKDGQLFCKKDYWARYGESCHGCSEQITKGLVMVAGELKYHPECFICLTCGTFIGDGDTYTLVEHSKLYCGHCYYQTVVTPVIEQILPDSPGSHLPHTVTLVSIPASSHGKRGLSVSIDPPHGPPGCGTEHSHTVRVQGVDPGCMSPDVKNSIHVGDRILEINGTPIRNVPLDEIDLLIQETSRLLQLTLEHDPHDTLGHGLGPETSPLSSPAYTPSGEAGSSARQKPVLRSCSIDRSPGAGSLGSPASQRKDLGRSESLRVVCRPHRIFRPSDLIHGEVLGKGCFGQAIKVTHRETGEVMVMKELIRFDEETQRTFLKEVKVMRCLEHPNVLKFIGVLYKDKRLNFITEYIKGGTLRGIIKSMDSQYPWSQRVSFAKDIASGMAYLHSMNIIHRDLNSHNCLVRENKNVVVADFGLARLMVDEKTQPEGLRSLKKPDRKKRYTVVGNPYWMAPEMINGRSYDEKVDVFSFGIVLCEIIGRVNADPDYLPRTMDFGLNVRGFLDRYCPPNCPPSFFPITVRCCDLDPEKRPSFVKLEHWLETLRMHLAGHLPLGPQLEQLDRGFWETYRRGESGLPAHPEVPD
Chain of protein kinases (human kinome) (Homo sapiens, UniProt P53350) (P53350 whole entry): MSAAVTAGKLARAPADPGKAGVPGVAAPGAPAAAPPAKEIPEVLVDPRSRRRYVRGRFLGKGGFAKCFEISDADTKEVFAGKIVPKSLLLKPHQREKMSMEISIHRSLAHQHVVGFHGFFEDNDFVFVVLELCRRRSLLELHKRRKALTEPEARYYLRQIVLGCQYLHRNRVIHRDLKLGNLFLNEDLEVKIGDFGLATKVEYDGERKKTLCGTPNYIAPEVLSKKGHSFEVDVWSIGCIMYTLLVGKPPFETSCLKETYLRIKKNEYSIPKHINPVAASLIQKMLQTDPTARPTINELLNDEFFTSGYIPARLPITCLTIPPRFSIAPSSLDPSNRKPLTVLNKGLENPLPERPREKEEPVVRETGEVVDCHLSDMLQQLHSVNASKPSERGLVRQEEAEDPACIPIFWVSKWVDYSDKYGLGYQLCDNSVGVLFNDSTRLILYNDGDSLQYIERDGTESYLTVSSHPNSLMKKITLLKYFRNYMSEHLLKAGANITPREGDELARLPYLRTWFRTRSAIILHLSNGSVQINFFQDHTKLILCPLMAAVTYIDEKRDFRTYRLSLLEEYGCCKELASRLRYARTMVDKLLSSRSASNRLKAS
Chain of protein kinases (human kinome) (Homo sapiens, UniProt P51451) (P51451 whole entry): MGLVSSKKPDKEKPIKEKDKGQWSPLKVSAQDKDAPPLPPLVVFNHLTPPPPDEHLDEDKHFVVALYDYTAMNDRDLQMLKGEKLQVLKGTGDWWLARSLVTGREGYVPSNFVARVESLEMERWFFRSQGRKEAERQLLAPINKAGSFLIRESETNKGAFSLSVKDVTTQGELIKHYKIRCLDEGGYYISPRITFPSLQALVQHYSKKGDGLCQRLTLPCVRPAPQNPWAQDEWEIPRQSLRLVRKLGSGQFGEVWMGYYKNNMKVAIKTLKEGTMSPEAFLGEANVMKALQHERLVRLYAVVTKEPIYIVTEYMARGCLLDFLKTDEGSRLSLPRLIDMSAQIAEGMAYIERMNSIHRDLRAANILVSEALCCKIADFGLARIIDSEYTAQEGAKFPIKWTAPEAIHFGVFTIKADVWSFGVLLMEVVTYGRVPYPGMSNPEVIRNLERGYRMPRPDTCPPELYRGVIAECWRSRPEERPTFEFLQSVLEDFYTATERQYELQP
Chain of protein kinases (human kinome) (Homo sapiens, UniProt P11802) (P11802 whole entry): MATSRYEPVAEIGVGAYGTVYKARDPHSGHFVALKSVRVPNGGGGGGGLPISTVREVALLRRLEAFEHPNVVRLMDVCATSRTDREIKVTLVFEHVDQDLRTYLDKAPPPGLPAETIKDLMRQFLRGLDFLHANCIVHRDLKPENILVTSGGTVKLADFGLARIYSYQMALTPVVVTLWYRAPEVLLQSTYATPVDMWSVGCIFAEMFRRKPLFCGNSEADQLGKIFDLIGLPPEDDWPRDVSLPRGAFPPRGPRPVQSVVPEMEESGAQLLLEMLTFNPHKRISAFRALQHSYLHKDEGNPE

Cc1ccc(NC(=O)c2cccc(C(F)(F)F)c2)cc1N1Cc2cnc(Nc3ccc(N4CCN(CCOc5cccc6c5C(=O)N(C5CCC(=O)NC5=O)C6=O)CC4)nc3)nc2N(C)C1=O (stereo not drawn) [DB0661]
logFC [1]: −0.3523
logFC LCK ([2]; LCK P06239-1): −0.4717
logFC LCK ([2]; LCK, accession P06239-1, direction of change down): −0.4717
logFC [3]: −0.5229
logFC ([3]; direction down): −0.5229
logFC CDK4 (P11802) [4]: −0.4978
logFC of SRC ([5]; Accession P12931, experiment wp168): −0.6685
logFC of SRC (P12931) ([5]; Experiment wp168): −0.6685
logFC of FER (P16591-1) ([6]; Experiment wp168, down): −0.6143
logFC of FER ([6]; FER P16591-1, experiment wp168): −0.6143
logFC [7]: −0.3607
logFC of CSK ([8]; Accession P41240): −1.526
logFC CSK ([8]; CSK (P41240), down): −1.526
logFC [9]: −1.961
logFC MAPK9 [9]: −1.961
logFC CLK1 ([10]; CLK1 P49759, experiment wp168): −0.3319
logFC of CLK1 (P49759) ([10]; Experiment wp168): −0.3319
logFC BLK ([11]; BLK (P51451), direction down, experiment wp168): −1.428
logFC of BLK (P51451) ([11]; Experiment wp168, down): −1.428
logFC [12]: −0.3453
logFC PLK1 [12]: −0.3453
logFC LIMK1 ([13]; direction down): −1.116
logFC LIMK1 ([13]; down): −1.116
logFC TNK2 (Q07912-1) [14, 20]: −0.3873
logFC TNK2 ([14]; TNK2 (Q07912-1), experiment wp168): −0.3873
logFC UHMK1 ([15]; Accession Q8TAS1, direction down): −0.416
logFC UHMK1 ([15]; UHMK1 (Q8TAS1)): −0.416
logFC of SIK2 ([16]; Accession Q9H0K1): −0.3628
logFC SIK2 (Q9H0K1) ([16]; direction of change down): −0.3628
logFC MKNK2 (Q9HBH9-1) [17, 20]: −0.5094
logFC ([17]; MKNK2 (Q9HBH9-1), experiment wp168): −0.5094
logFC MAPK8 (P45983-4) [18, 20]: −0.5033
logFC MAPK8 ([18]; MAPK8 P45983-4, experiment wp168): −0.5033
logFC ([18]; PTK2B (Q14289-2), experiment wp168, direction down): −1.935
logFC PTK2B ([18]; PTK2B, accession Q14289-2, experiment wp168, direction of change down): −1.935
kinases the bifunctional compound degrades ([18]; as stated for the structure in the embodiments): BLK, CDK4, CLK1, CSK, FER, LCK, LIMK1, MAPK8, MAPK9, MKNK2, PLK1, PTK2B, SIKA2, SRC, TNK2, UHMK1, and YES1
Kinase hits ([18]; kinases significantly downregulated vs DMSO (fold change cutoff −1.25, P-value<0.01), ≤8 h, 0.1-5 μM degrader, 7 cell lines): BLK, CDK4, CLK1, CSK, FER, LCK, LIMK1, MAPK8, MAPK9, MKNK2, PLK1, PTK2B, SIKa2, SRC, TNK2, UHMK1, YES1
Total no. kinase hits ([18]; number of degraded kinases per library compound): 17
logFC PFKFB3 [19]: −0.4392
